From PMC10348910, “Epigenetic reprogramming of cell cycle genes by ACK1 promotes breast cancer resistance to CDK4/6 inhibitor” (Oncogene, 2023)

Tests used:
[1] = tested on: Cal-148 xenografts; assay: Cal-148 xenograft in mammary fat pad; type: in vivo, female SCID mice; details: 24 mg/Kg subcutaneously, 4 weeks
Protocol: In order to assess the in vivo implications of ACK1 inhibition in TNBCs, Cal-148 xenografts were established in mammary fat pad of female SCID mice. Once the tumors were palpable, the mice were injected subcutaneously with 24 mg/Kg of (R)-9b for 4 weeks and the tumor volumes were measured. On reaching the endpoint, the mice were sacrificed and the tumors were harvested, weighed and photographed. […] RNA was prepared from the tumors, followed by qRT-PCR.
Fig. 6 (R)-9b inhibits breast cancer xenograft tumor growth in vivo. A 2 × 10^6 Cal-148 cells were injected in the 4th inguinal mammary fat pad of female SCID mice. Once the tumors were palpable, the mice were treated subcutaneously with either vehicle (Captisol; n = 8) or (R)-9b at 24 mg/Kg (n = 8) five times a week, for 4 weeks. The tumor volumes were measured twice a week. B, C The tumors were harvested and photographed, and the weights were recorded. D RNA was prepared from the tumors, followed by qRT-PCR to determine the levels of CCNB1, CCNB2 and CDC20 mRNA (n = 3 each). […] The tumors were harvested, their weights were recorded and photographed. […]
All animal experiments were performed using the standards for humane care in accordance with the NIH Guide for the Care and Use of Laboratory Animals. […] Tumor volumes were measured twice a week using calipers. […]

[2] = tested on: pY284-ACK1; assay: immunoprecipitation and immunoblotting for pY284-ACK1; type: cell-based; details: MDA-MB-231, HCC-1395, Cal148, T47D, MCF7, SKBR3, MDA-MB-453; overnight
Protocol: Fig. 2 ACK1 regulates breast cancer transcriptome, affecting genes implicated in cell cycle progression. A Chemical structure of (R)-9b. B Breast cancer cell lines were treated with either vehicle or (R)-9b overnight and cell lysates were subjected to immunoprecipitation using ACK1 antibody, followed by immunoblotting with pY284-ACK1 antibody. Lysates were also subjected to immunoblotting with total ACK1 and Actin antibodies, shown in the lower panels. […] C Breast cancer cell lines were treated with varying concentrations of (R)-9b for 96 h and the cell proliferation was measured using Trypan Blue exclusion method. D–H RNA from breast cancer cells treated with vehicle or varying concentrations of (R)-9b overnight, and were subjected to qRT-PCR using CCNB1, CCNB2 and CDC20 primers. Actin or 18S rRNA was used as housekeeping control. For (B), representative images of three independent experiments are shown. For (C), a four parameter, variable slope, non-linear regression curve was computed, representing three independent experiments. For (D–H), data are represented as the mean ± SEM. *p < 0.05, **p < 0.01, ***p < 0.001, unpaired two-tailed Student’s t test.
Vehicle or (R)-9b (5 µM, overnight in serum free media) treated cells were lysed by sonication in receptor lysis buffer (RLB) and lysates were fractionated by SDS-PAGE, and transferred onto a PVDF membrane (Immobilon). […]

## CN1CCN(c2ccc(Nc3ncc(Cl)c(NC[C@H]4CCCO4)n3)cc2)CC1 [(R)-9b]
[1]
  CCNB1, CCNB2 and CDC20 mRNA levels in tumors: significant decrease
[1]; five times a week
  xenograft tumor growth: significant suppression
[2]
  pY284-ACK1 levels (ACK1 activation): reduced pY284-ACK1 levels
